Reference: paper PMC11678245, “The Molecular Basis of the Intrinsic and Acquired Resistance to Azole Antifungals in Aspergillus fumigatus” (Journal of Fungi, 2024)
Where “and” joins values, the source holds several entries; their conditions need not be identical. Equal values may be shown once. Read-outs that look alike come from different tables or passages of the source.

Experiments:
[1] = test system: S. cerevisiae strain ADΔΔ (native ScCYP51); assay: MIC80 susceptibility, host strain ADΔΔ; format: cell-based; settings: Saccharomyces cerevisiae, Table 2, SD pH 6.8, 48 h, 30 °C
Method: (§1) The susceptibilities of S. cerevisiae strains to antifungal drugs were determined as minimum growth inhibitory concentration (MIC) values in 200 μL SD pH 6.8 [24]. Serial 2-fold dilutions of 100 μL of azole or control drugs in SD pH 6.8 were prepared in a 96-well microtiter plate. A portion of a 2 mL SD pH 6.8 overnight culture of the test strain was inoculated into 3 mL fresh SD pH 6.8 and incubated for 4 to 6 h at 30 °C to generate logarithmic-phase cells. These cells were then diluted with fresh SD pH 6.8 to OD600nm = 0.01 (3 × 10^4 CFU), and 100 μL of this cell suspension was added to microtiter plate wells. Cell growth after 48 h incubation at 30 °C with shaking at 200 rpm was determined at 600 nm using a BioTek™ Synergy™ 2 multi-Mode microplate reader controlled using Gen5™ Data Analysis Software version 3.16.10 (BioTek Instruments, Winooski, VT, USA). MIC80 values (80% growth inhibition in the presence of the test drug compared with the untreated control) for each yeast construct were determined as technical triplicates repeated three times for three separate clones.

[2] = test system: S. cerevisiae strain ARE Y121F (AfCyp51A-6×His Y121F, AfCprA2, AfErg6-FLAG); assay: MIC80 susceptibility, strain Y121F; format: cell-based, Saccharomyces cerevisiae; settings: for MIC80: Saccharomyces cerevisiae, ± SD, read-out: MIC80
Method: as §1

[3] = test system: S. cerevisiae strain A (AfCyp51A-6×His, native ScCyp51 retained); assay: MIC80 susceptibility, strain A; format: cell-based; settings: Saccharomyces cerevisiae, Table 2, SD pH 6.8, 48 h, 30 °C
Method: as §1

[4] = test system: S. cerevisiae strain AR (AfCyp51A-6×His, AfCprA2-6×His); assay: MIC80 susceptibility, strain AR; format: cell-based, Saccharomyces cerevisiae; settings: Saccharomyces cerevisiae; Table 2; strain AR; SD pH 6.8, 48 h, 30 °C; ± SD; read-out: MIC80
Method: as §1

[5] = test system: S. cerevisiae strain ARE Y121F T289A (AfCyp51A-6×His Y121F T289A, AfCprA2, AfErg6-FLAG); assay: MIC80 susceptibility, strain Y121F T289A; format: cell-based, Saccharomyces cerevisiae; settings: for MIC80: Saccharomyces cerevisiae, ± SD, read-out: MIC80
Method: as §1

[6] = test system: S. cerevisiae strain ARE I301T (AfCyp51A-6×His I301T, AfCprA2, AfErg6-FLAG); assay: MIC80 susceptibility, strain I301T; format: cell-based, Saccharomyces cerevisiae; settings: for MIC80: ± SD
Method: as §1

[7] = test system: S. cerevisiae Y2305 ADΔΔ CYP51 T322I (ScCYP51 T322I); assay: MIC80 susceptibility, strain Y2305 (Table S1); format: cell-based, Saccharomyces cerevisiae; settings: Saccharomyces cerevisiae, read-out: MIC80
Method: as §1, with “clones. […]” for “clones.”
Table S1. Azole susceptibilities of ScCYP51 and ScCYP51 T322I expressed
Data for each strain was obtained for […] in three biological replicates.

[8] = test system: S. cerevisiae strain BRE (Y2747); assay: Sterol analysis of recombinant yeast strain (GC-MS); format: cell-based, Saccharomyces cerevisiae; settings: VCZ at concentration slowing growth rate by ~50%, ~1% without VCZ
Method: (§2) Yeast strains grown overnight in SD medium pH 6.8 were inoculated in 20 mL fresh medium and grown to OD600nm = 0.5. The cultures were then treated with VCZ at a concentration that reduced the rate of cell growth by ~50%. Untreated control cultures were harvested by centrifugation after 8 h at a cell density of ~2.5, and VCZ-treated cultures were harvested after ~16 h at a similar cell density. The harvested cells were prepared for sterol extraction and analysis using the method described by Müller et al..

[9] = test system: S. cerevisiae strain ARE (Y2746); assay: as above; format: cell-based, Saccharomyces cerevisiae; settings: VCZ at concentration slowing growth rate by ~50%, 20% without VCZ
Method: as §2

[10] = Table 2, strain Y121F, SD pH 6.8, 48 h, 30 °C
[11] = Table 2, strain Y121F T289A, SD pH 6.8, 48 h, 30 °C
[12] = Saccharomyces cerevisiae, 48 h, pH 6.8, Table 2, strain I301T, SD pH 6.8, 48 h, 30 °C, read-out: MIC80

SMILES | MIC80 [1] [µM] | MIC80 [2, 10] [µM] | MIC80 ([2]; Table 3, strain ARE Y121F) [µM] | MIC80 [3] [µM] | MIC80 [4] [µM] | increase in resistance (MIC80) of strain Y121F T289A compared with strain ARE [5] [fold] | increase in resistance (MIC80) of strain Y121F T289A compared with strain BRE [5] [fold] | increase in resistance (MIC80) of strain Y121F T289A compared with strain T289A [5] [fold] | increase in resistance (MIC80) of strain Y121F T289A compared with strain Y121F [5] [fold] | MIC80 [5, 11] [µM] | MIC80 ([5]; Table 3, strain ARE Y121F T289A) [µM] | greater susceptibility (MIC80) of strain I301T compared with strain ARE [6] [fold] | MIC80 [6, 12] [µM] | MIC80 ([6]; Saccharomyces cerevisiae, Table 3, strain ARE I301T, read-out: MIC80) [µM] | MIC80 [7] [µM] | eburicol content in the presence of VCZ [8] | eburicol content in the presence of VCZ [9] | increase in resistance (MIC80) of strain Y121F compared with strain ARE [2] | MIC80 ([6]; Table 2, strain I301T, SD pH 6.8, 48 h, 30 °C) [µM]
OC(Cn1cncn1)(Cn1cncn1)c1ccc(F)cc1F [FLC, fluconazole] | 3.3 ± 0.2 | 263 ± 31.6 | 157 ± 33 | 3.8 ± 0.2 | 6.5 ± 0.7 | 5 | 106 | 53 | 4 | 1060 ± 60 | 725 ± 65 | 3 | 77.2 ± 5.9 | 65 ± 14 | 6.6 ± 0.2 |  |  |  | 
C[C@@H](c1ncncc1F)[C@](O)(Cn1cncn1)c1ccc(F)cc1F [VCZ, voriconazole] | 0.06 | 2.07 ± 0.21 |  | 0.08 ± 0.01 | 0.11 ± 0.02 |  | 4 | 4 |  | 2.86 ± 0.22 |  |  | < 0.12 |  | 0.8 ± 0.03 | ~ 20 % of total sterol | 25 % of total sterol | > 8 fold and 8 fold | 0.11 ± 0.00
